# Experimental data as given in PubChem BioAssay (NCI).
#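 Here, GI50 denotes the concentration required for 50% inhibition of growth. TGI denotes the concentration required for complete inhibition of growth.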
# Experiments:
# Test in all cases: NCI anticancer screen, dose series, 384-well format
# [1] = test system: OVCAR-3 ovarian
# [2] = test system: MOLT-4 leukemia
# [3] = test system: NCI-H23 lung
# [4] = test system: MDA-MB-468 breast
# [5] = test system: HOP-62 NSCLC
# [6] = test system: UACC-62 melanoma
# [7] = test system: SF-295 CNS
# [8] = test system: UACC-257 melanoma
# [9] = test system: MALME-3M melanoma
# [10] = test system: SNB-19 CNS
# [11] = test system: SK-MEL-28 melanoma
# [12] = test system: T-47D breast
# [13] = test system: HCC-2998 colon
# [14] = test system: TK-10 renal
# [15] = test system: UO-31 renal
# [16] = test system: MCF7 breast
# [17] = test system: CAKI-1 renal
# [18] = test system: MDA-MB-435 melanoma
# [19] = test system: IGROV1 ovarian
# [20] = test system: HCT-15 colon
# [21] = test system: OVCAR-4 ovarian
# [22] = test system: PC-3 prostate
# [23] = test system: U251 glioblastoma
# [24] = test system: NCI/ADR-RES ovarian
# [25] = test system: HL-60(TB) leukemia
# [26] = test system: NCI-H460 NSCLC
# [27] = test system: SK-OV-3 ovarian
# [28] = test system: RXF 393 renal
# [29] = test system: BT-549 breast
# [30] = test system: 786-0 renal
# [31] = test system: HT29 colon
# [32] = test system: DU-145 prostate
# [33] = test system: SW-620 colon
# [34] = test system: KM12 colon
# [35] = test system: K-562 leukemia
# [36] = test system: COLO 205 colon
# [37] = test system: SN12C renal
# [38] = test system: M14 melanoma
# [39] = test system: ACHN renal
# [40] = test system: A549 NSCLC
# [41] = test system: NCI-H522 lung
# [42] = test system: HCT-116 colon
# [43] = test system: SK-MEL-5 melanoma
# [44] = test system: EKVX NSCLC
# [45] = test system: OVCAR-5 ovarian
# [46] = test system: LOX IMVI melanoma
# [47] = test system: OVCAR-8 ovarian
# [48] = test system: HOP-92 NSCLC
# [49] = test system: RPMI-8226 leukemia
# [50] = test system: NCI-H226 lung
# [51] = test system: CCRF-CEM leukemia
structure (smiles),measurement,setting,value
Cc1cc(-c2nc(-c3ccc(OC(F)(F)F)cc3)no2)nn1Cc1ccnc(N2CCN(C3CC3)CC2)c1,GI50,[1],6.51 µM
same,TGI,[1],> 100 µM
same,GI50,[2],< 10 nM
same,TGI,[2],7.05 µM
same,GI50,[3],< 10 nM
same,TGI,[3],84.8 µM
same,GI50,[4],< 10 nM
same,TGI,[4],< 10 nM
same,GI50,[5],< 10 nM
same,TGI,[5],20.7 µM
same,GI50,[6],9.33 µM
same,TGI,[6],21.8 µM
same,GI50,[7],> 100 µM
same,TGI,[7],> 100 µM
same,GI50,[8],< 10 nM
same,TGI,[8],3.31 µM
same,GI50,[9],4.82 µM
same,TGI,[9],18.3 µM
same,GI50,[10],10.9 µM
same,TGI,[10],> 100 µM
same,GI50,[11],12.9 µM
same,TGI,[11],28.7 µM
same,GI50,[12],< 10 nM
same,TGI,[12],1500 nM
same,GI50,[13],4.19 µM
same,TGI,[13],20.2 µM
same,GI50,[14],40.9 µM
same,TGI,[14],> 100 µM
same,GI50,[15],15.7 µM
same,TGI,[15],> 100 µM
same,GI50,[16],470 nM
same,TGI,[16],15.4 µM
same,GI50,[17],14.9 µM
same,TGI,[17],> 100 µM
same,GI50,[18],5.96 µM
same,TGI,[18],> 100 µM
same,GI50,[19],9.15 µM
same,TGI,[19],> 100 µM
same,GI50,[20],1440 nM
same,TGI,[20],18.8 µM
same,GI50,[21],28.7 µM
same,TGI,[21],> 100 µM
same,GI50,[22],2990 nM
same,TGI,[22],66.9 µM
same,GI50,[23],1830 nM
same,TGI,[23],> 100 µM
same,GI50,[24],< 10 nM
same,TGI,[24],> 100 µM
same,GI50,[25],1730 nM
same,TGI,[25],11 µM
same,GI50,[26],< 10 nM
same,TGI,[26],< 10 nM
same,GI50,[27],< 10 nM
same,TGI,[27],> 100 µM
same,GI50,[28],< 10 nM
same,TGI,[28],< 10 nM
same,GI50,[29],2060 nM
same,TGI,[29],35.9 µM
same,GI50,[30],4.88 µM
same,TGI,[30],> 100 µM
same,GI50,[31],2430 nM
same,TGI,[31],12.3 µM
same,GI50,[32],20.3 µM
same,TGI,[32],> 100 µM
same,GI50,[33],12.1 µM
same,TGI,[33],89.7 µM
same,GI50,[34],5.2 µM
same,TGI,[34],70.4 µM
same,GI50,[35],< 10 nM
same,TGI,[35],44.9 µM
same,GI50,[36],5.77 µM
same,TGI,[36],> 100 µM
same,GI50,[37],7.01 µM
same,TGI,[37],> 100 µM
same,GI50,[38],2130 nM
same,TGI,[38],7.15 µM
same,GI50,[39],12.6 µM
same,TGI,[39],> 100 µM
same,GI50,[40],< 10 nM
same,TGI,[40],> 100 µM
same,GI50,[41],< 10 nM
same,TGI,[41],> 100 µM
same,GI50,[42],< 10 nM
same,TGI,[42],> 100 µM
same,GI50,[43],< 10 nM
same,TGI,[43],2240 nM
same,GI50,[44],< 10 nM
same,TGI,[44],62.6 µM
same,GI50,[45],15.7 µM
same,TGI,[45],86.1 µM
same,GI50,[46],< 10 nM
same,TGI,[46],14.1 µM
same,GI50,[47],< 10 nM
same,TGI,[47],> 100 µM
same,GI50,[48],3.45 µM
same,TGI,[48],> 100 µM
same,GI50,[49],< 10 nM
same,TGI,[49],> 100 µM
same,GI50,[50],4.01 µM
same,TGI,[50],> 100 µM
same,GI50,[51],< 10 nM
same,TGI,[51],< 10 nM
